The test system of the test is platelet aggregation (using platelet rich plasma (PRP)). In words: Platelet Aggregation Assay (without esterase). It counts as cell-based. The conditions noted are these: human platelet rich plasma. Here is the method:
Platelet Aggregation Assay: Venous blood was obtained from the arm of a healthy human donor who was drug-free and aspirin-free for at least two weeks prior to blood collection. Blood was collected into 10 mL citrated Vacutainer tubes. The blood was centrifuged for 15 minutes at 150×g at room temperature, and platelet-rich plasma (PRP) was removed. The remaining blood was centrifuged for 15 minutes at 1500×g at room temperature, and platelet-poor plasma (PPP) was removed. Samples were assayed on a aggregometer (PAP-4 Platelet Aggregation Profiler), using PPP as the blank (100% transmittance). 200 μL of PRP was added to each micro test tube, and transmittance was set to 0%. 20 μL of various agonists (ADP, collagen, arachidonate, epinephrine, thrombin) were added to each tube, and the aggregation profiles were plotted (% transmittance versus time). The results are expressed as % inhibition of agonist-inducedplatelet aggregation. For the IC50 evaluation, the test compounds were added at various concentrations prior to the activation of the platelets.
Table A below sets forth the antiplatelet activity of representative compounds of the present invention. The indicated compounds were tested for their ability to inhibit platelet aggregation (using platelet rich plasma (PRP)). The IC50 value (the concentration of antagonist which inhibits platelet aggregation by 50% relative to a control lacking the antagonist) is shown. In Table 5 the IC50 values are expressed as: +++=IC50 of <10 μM (μM=micromolar).

Our source for the IC50 values is US6004955A, “Cyclic carbamates and isoxazolidines as IIb/IIIa antagonists” (DuPont Pharmaceuticals Company, priority 1998, dated 1999).

Each structure is given as a SMILES string. A value given as a limit tells only on which side of the number the result lay.

As a reminder, the IC50 is the concentration needed to halve the response being measured. A low value points to greater potency. Take `Cc1ccccc1S(=O)(=O)N[C@@H](CNC(=O)CC1CC(c2ccc(C(=N)N)cc2)N(C)O1)C(=O)O` (stereo partly drawn) [Example 33, Cis-3-[2-[2-methyl-3-[4-(aminoiminomethyl)phenyl]-isoxazolidin-5-yl]acetyl]amino-N-(2-methylphenylsulfonyl)-L-alanine monohydrogenchloride]: the IC50 is under 10 µM. For `Cc1cccc(S(=O)(=O)N[C@@H](CNC(=O)CC2CC(c3ccc(C(=N)N)cc3)N(C)O2)C(=O)O)c1` (stereo partly drawn) [Example 2, Cis-3-[2-[2-methyl-3-[4-(aminoiminomethyl)phenyl]-isoxazolidin-5-yl]acetyl]amino-N-(3-methylphenylsulfonyl)-L-alanine monohydrogenchloride] the value was under 10 µM; for `Cc1noc(C)c1S(=O)(=O)N[C@@H](CNC(=O)C[C@@H]1C[C@H](c2ccc(C(=N)N)cc2)N(C)O1)C(=O)O` (relative stereo) [Example 38, Cis-3-[2-[2-methyl-3-[4-(aminoiminomethyl)phenyl]-isoxazolidin-5-yl]acetyl]amino-N-(3,5-dimethyloxazol-4-ylsulfonyl)-L-alanine monohydrogenchloride], under 10 µM.

`CCCCOC(=O)N[C@@H](CNC(=O)CC1CC(c2ccc(C(=N)N)cc2)N(C)C(=O)O1)C(=O)O` (stereo partly drawn) [Example 356, Cis-3-[[[4-[4-(aminoiminomethyl)phenyl]tetrahydro-3-methyl-2-oxo-2H-1,3-oxazin-6-yl]acetyl]amino]-N-(n-butyloxycarbonyl)-L-alanine monohydrogenchloride]: the IC50 is under 10 µM. In turn, `Cc1ccccc1S(=O)(=O)N[C@@H](CNC(=O)CC1CC(c2ccc(C(=N)N)cc2)N(C)C(=O)O1)C(=O)O` (stereo partly drawn) [Example 328, Cis-3-[[[4-[4-(aminoiminomethyl)phenyl]tetrahydro-3-methyl-2-oxo-2H-1,3-oxazin-6-yl]acetyl]amino]-N-[(2-methylphenyl)sulfonyl]-L-alanine monohydrogenchloride] had an IC50 of under 10 µM.
